Target: T1, ER beta receptor (Homo sapiens, UniProt Q92731)
T1 construct: purchased PanVera
Assay: Competition ER binding assay (3H-Estradiol displacement)
Details: for Ratio of Ki(nM)ER alpha/Ki(nM) ER beta: selectivity ratio Ki ER alpha / Ki ER beta, Ki from IC50 by Cheng-Prusoff, 3H-Estradiol, ERAlpha or ERbeta Receptor (PanVera)
Method: The competition ER binding assay was run in a buffer containing 50 mM N-[2-hydroxyethyl]piperazine-N′-[2-ethanesulfonic acid (Hepes) pH 7.5, 1.5 mM EDTA, 150 mM NaCl, 10% glycerol, 1 mg/mL ovalbumin, 5 mM DTT, 0.025 μCi per well of ^3H-Estradiol(NEN #NET517 at 118 Ci/mmol, 1 mCi/mL), and 10 ng/well ERAlpha or ERbeta Receptor (PanVera). Competing compounds were added at 10 different concentrations. Non-specific binding was determined in the presence of 1 μM of E2 (17-β Estradiol, Sigma, St. Louis, Mo.). The binding reaction (140 μL) was incubated for 4 hours at room temperature, then 70 μL of cold dextran coated charcoal (DCC) buffer was added to each reaction (DCC buffer was prepared by adding 0.75 g of charcoal[Sigma] and 0.25 g of dextran [Pharmacia] per 50 mL of assay buffer). The incubation plates were mixed for 8 minutes on an orbital shaker at 4° C. and then centrifuged at 3,000 rpm for 10 minutes at 4° C. An aliquot of 120 μl of the mix was transferred to another 96-well, white flat bottom plate (Costar) and 175 μl of Wallac Optiphase Hisafe 3 scintillation fluid was added to each well. The plates were sealed and then shaken vigorously on an orbital shaker. After an incubation of 2.5 hrs, the radioactivity was counted in a Wallac Microbeta counter. […] The Kd for ^3H-Estradiol was determined by saturation binding to ERα and ERβ receptors. The IC50 values for compounds were converted to Ki values using the Cheng-Prusoff equation and the Kd values were determined by saturation binding assay.

T1 sequence (Q92731 whole entry): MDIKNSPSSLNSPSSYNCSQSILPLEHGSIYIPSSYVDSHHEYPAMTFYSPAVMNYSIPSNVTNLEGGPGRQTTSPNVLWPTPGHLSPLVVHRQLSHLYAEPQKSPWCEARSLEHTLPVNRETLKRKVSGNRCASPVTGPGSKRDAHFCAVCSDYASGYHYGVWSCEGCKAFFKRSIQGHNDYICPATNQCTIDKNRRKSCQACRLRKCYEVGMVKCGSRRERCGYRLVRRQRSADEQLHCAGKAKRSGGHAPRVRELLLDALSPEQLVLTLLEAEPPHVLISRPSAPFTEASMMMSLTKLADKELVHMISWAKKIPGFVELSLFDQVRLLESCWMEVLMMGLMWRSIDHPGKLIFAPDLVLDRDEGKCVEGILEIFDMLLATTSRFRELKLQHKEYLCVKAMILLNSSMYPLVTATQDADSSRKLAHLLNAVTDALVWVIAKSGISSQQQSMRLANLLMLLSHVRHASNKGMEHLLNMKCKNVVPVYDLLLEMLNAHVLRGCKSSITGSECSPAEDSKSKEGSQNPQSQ

| SMILES | activity in the ER binding assay | Ratio of Ki(nM)ER alpha/Ki(nM) ER beta |
| --- | --- | --- |
| Cc1ccc([C@H]2Oc3ccc(O)cc3[C@H]3CCC[C@H]32)cc1 (racemic) [Example 6, (±)-2-(4-Methylphenyl)-6-hydroxy-cyclopentyl[c]3,4-dihydro-2H-1-benzopyran] | active | 12.6 |
| CCc1ccc([C@H]2Oc3ccc(O)cc3[C@H]3CCC[C@H]32)cc1 (racemic) [Example 3, (±)-2-(4-ethylphenyl)-6-hydroxy-cyclopentyl[c]3,4-dihydro-2H-1-benzopyran] | active | 2.6 |
| Oc1ccc2c(c1)[C@H]1CCC[C@H]1[C@@H](c1ccc(F)cc1)O2 (racemic) [Example 2, (±)-2-(4-Fluorophenyl)-6-hydroxy-cyclopentyl[c]3,4-dihydro-2H-1-benzopyran] | active | 5.0 |
| Oc1ccc2c(c1)[C@H]1CCC[C@H]1[C@@H](c1ccc(C(F)(F)F)cc1)O2 (racemic) [Example 4, (±)-2-(4-Trifluoromethylphenyl)-6-hydroxy-cyclopentyl[c]3,4-dihydro-2H-1-benzopyran] | active | 6.9 |

— US6630508B1, “Substituted benzopyrans as selective estrogen receptor β agonists” (Eli Lilly and Company, priority 2002, dated 2003)
